# Test results published in ChEMBL document CHEMBL1128963, “A non-peptide ligand for the somatostatin receptor having a benzodiazepinone structure” (Bioorg Med Chem Lett, 1996).
# Molecular target: Somatostatin receptor
# Test: Compound was tested for its inhibitory effect against somatostatin receptor in rat cortex membrane using [125I]Tyr3-octreotide as the radioligand
# Type: cell membranes
IC50 [µM],Log Ki,SMILES
6.5,-5.2,"NCCCCCN1C(=O)C(Cc2c[nH]c3ccccc23)N(C(=O)c2ccccc2)Cc2ccccc21 (single isomer, unassigned; (-))"
8.2,–,NCCCCCN1C(=O)C(Cc2c[nH]c3ccccc23)N(C(=O)c2ccccc2)Cc2ccccc21 (stereo in doubt; (+)2)
7,-5.1,NCCCCCN1C(=O)C(Cc2c[nH]c3ccccc23)N(C(=O)c2ccccc2)Cc2ccccc21 (stereo in doubt; 2)

SMILES,IC50 [µM],Log Ki
C[C@H](N)C(=O)NCC(=O)N[C@@H]1CSSC[C@@H](C(=O)O)NC(=O)[C@H](CO)NC(=O)[C@@H]([C@@H](C)O)NC(=O)[C@H](Cc2ccccc2)NC(=O)[C@@H]([C@@H](C)O)NC(=O)[C@H](CCCCN)NC(=O)[C@H](Cc2c[nH]c3ccccc23)NC(=O)[C@H](Cc2ccccc2)NC(=O)[C@@H](Cc2ccccc2)NC(=O)[C@H](CC(N)=O)NC(=O)[C@@H](CCCCN)NC1=O [SOMATOSTATIN RECEPTOR LIGAND],0.00043,–
